This is an account of results in patent publication US6608086B2, “Dihydropyridines and new uses thereof” (Synaptic Pharmaceutical Corporation, priority 1993, dated 2003).

Counter-ions that a name gives are not always drawn. Like-named read-outs stand apart in the source and are kept apart here.

Assay [1] concerns the target T1, α1C Human Adrenergic Receptor (Homo sapiens, UniProt P35348).
T1 construct: The entire coding region of α1C (1401 bp); expressed in transfected cells
T1 sequence (P35348 1-466): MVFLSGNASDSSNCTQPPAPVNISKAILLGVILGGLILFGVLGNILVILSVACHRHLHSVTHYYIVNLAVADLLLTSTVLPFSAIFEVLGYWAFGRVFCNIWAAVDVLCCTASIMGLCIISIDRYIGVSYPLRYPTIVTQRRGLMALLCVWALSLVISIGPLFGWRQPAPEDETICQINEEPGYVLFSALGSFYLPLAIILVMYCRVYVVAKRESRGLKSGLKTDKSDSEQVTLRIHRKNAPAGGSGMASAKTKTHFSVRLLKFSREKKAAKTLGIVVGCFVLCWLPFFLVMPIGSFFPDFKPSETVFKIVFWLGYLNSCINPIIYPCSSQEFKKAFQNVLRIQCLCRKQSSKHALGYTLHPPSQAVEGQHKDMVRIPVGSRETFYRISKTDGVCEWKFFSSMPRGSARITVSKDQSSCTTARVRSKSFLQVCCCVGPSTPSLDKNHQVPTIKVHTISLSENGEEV
Put plainly: Radioligand binding, [3H]prazosin, cloned human α1C adrenergic receptor. The note with it: for Ki: read-out: pKi alpha-1 1c (converted). The method, boiled down:
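Stably transfected mouse LM(tk−) fibroblast membranes bearing the cloned human α1C adrenoceptor served as receptor source. Specific binding was taken as the portion of 0.5 nM [3H]prazosin displaceable by 10 μM phentolamine after 20 min at 37° C., pH 7.5, in Mg2+/ascorbate-containing Tris buffer.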

In assay [2] the target is T2, α2B receptor (Homo sapiens, UniProt P18089).
T2 construct: host or cells: LM(tk-) cells, line L-NGC-α2B
T2 sequence (P18089 1-450): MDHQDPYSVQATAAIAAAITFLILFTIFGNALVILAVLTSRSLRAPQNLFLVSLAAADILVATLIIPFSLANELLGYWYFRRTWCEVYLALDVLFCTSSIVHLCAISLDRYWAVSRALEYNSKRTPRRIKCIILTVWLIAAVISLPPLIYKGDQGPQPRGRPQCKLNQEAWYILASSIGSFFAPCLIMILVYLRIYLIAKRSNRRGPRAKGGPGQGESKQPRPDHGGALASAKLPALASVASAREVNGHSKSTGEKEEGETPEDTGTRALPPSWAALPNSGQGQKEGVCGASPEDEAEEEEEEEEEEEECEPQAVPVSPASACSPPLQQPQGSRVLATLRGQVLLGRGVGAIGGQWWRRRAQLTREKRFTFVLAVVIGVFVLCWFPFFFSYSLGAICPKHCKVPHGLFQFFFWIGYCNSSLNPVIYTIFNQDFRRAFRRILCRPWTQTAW
Put plainly: Competition binding, [3H]rauwolscine, human α2B receptor. The note with it: for Ki: read-out: pKi alpha-2 2b (converted). The method, boiled down: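 Equilibrium displacement of [3H]rauwolscine (0.5 nM) measured on membranes from stably transfected LM(tk−) lines, one per α2 subtype, in glycylglycine buffer at pH 7.6. Nonspecific binding set by 10 μM phentolamine; separation by filtration.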

For assay [3], the target named is T3, α2C receptor (Homo sapiens, UniProt P18825).
T3 construct: host or cells: LM(tk-) cells, line L-α2C
T3 sequence (P18825 1-462): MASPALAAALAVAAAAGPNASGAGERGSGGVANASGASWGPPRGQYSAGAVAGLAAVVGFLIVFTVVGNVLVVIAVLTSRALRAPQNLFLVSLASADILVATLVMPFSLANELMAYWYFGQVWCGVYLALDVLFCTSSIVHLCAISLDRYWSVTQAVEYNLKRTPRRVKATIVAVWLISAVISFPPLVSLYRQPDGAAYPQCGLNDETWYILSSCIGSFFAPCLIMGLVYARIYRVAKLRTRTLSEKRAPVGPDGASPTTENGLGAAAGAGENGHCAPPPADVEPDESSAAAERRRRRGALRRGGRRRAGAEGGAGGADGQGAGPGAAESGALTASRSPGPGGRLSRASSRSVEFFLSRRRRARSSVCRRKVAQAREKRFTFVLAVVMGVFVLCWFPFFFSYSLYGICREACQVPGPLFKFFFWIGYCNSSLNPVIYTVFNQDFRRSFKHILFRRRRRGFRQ
The assay can be described thus: Competition binding, [3H]rauwolscine, human α2C receptor. The note with it: for Ki: read-out: pKi alpha-2 2c (converted). From the text: The protocols for these experiments are given below.
α2 Human Adrenergic Receptors:
To determine the potency of […], antagonists at the α2 receptors, LM(tk−) cell lines stably transfected with the genes encoding the α2A, α2B, and α2C receptors were used. The cell line expressing the α2A receptor is designated L-α2A, and was deposited on Nov. […] The cell line expressing the α2B receptor is designated L-NGC-α2B, and was deposited on Oct. […] The cell line expressing the α2C receptor is designated L-α2C, and was deposited on Nov. […] Cell lysates were prepared as described above (see Radioligand Binding Assays), and suspended in 25 mM glycylglycine buffer (pH 7.6 at room temperature). Equilibrium competition binding assay were performed using [3H]rauwolscine (0.5 nM), and nonspecific binding was determined by incubation with 10 μM phentolamine. The bound radioligand was separated by filtration through GF/B filters using a cell harvester.

[4] abbreviates: cloned human receptor in LM(tk-) cell membranes, SEM and n in lines below.
Where [5] appears, read: [3H]rauwolscine, LM(tk-) cell line L-NGC-α2B, SEM and n in lines below.
[6] abbreviates: [3H]rauwolscine, LM(tk-) cell line L-α2C, SEM and n in lines below.

Take “5-Acetyl-1,4-dihydro-2,6-dimethyl-4-(4-nitrophenyl)-3-[3-(4,4-diphenylpiperidin-1-yl)propoxy]carbonylpyridine hydrochloride hemihydrate [Example 49]”: the “pKi alpha-1 1c” value in assay [1] (setting [4]) was 8.56. For the same molecule, the “pKi alpha-2 2b” value in assay [2] is 6.42. Also, the “pKi alpha-2 2c” value in assay [3] was 6.86.
For `COC(=O)C1=C(C)NC(C)=C(C(=O)NCCCN2CCC(c3ccccc3)CC2)C1c1ccc([N+](=O)[O-])cc1` (racemic) [(±)-45, (±)-1,4-Dihydro-3-methoxycarbonyl-2,6-dimethyl-4-(4-nitrophenyl)-5-{N-[3-(4-phenylpiperidin-1-yl)propyl]}carboxamidopyridine hydrochloride hemihydrate], the Ki in assay [1] (setting [4]) was 0.234 nM; in assay [2] (setting [5]), 214 nM; in assay [3] (setting [6]) it was 81.3 nM.
With `CNC(=O)C1=C(C)NC(C)=C(C(=O)NCCCN2CCC(c3ccccc3)(c3ccccc3)CC2)C1c1ccc([N+](=O)[O-])cc1` (racemic) [(±)-119, 1,4-Dihydro-2,6-dimethyl-5-(N-Methyl) carboxamido-4-(4-nitrophenyl)-3-{N-[3-(4,4-diphenylpiperidin-1-yl)propyl]}carboxamidopyridine], in assay [1] (cloned human α1C receptor, LM(tk−) cell membranes), the “pKi alpha-1 1c” value was 8.5. Besides, in assay [2], the “pKi alpha-2 2b” value worked out at 6.04. Further, the “pKi alpha-2 2c” value in assay [3] is 6.49.
With `COC(=O)C1=C(C)NC(C)=C(C(=O)NCCCN2CCC(c3ccccc3)CC2)C1c1ccc([N+](=O)[O-])cc1` (single isomer, unassigned; (+)) [(+)-45, 1,4-Dihydro-3-methoxycarbonyl-2,6-dimethyl-4-(4-nitrophenyl)-5-{N-[3-(4-phenylpiperidin-1-yl)propyl]}carboxamidopyridine hydrochloride hemihydrate], the Ki was 9.33 nM in assay [1] (setting [4]), 91.2 nM in assay [2] (setting [5]) and 22.4 nM in assay [3] (setting [6]).
The corresponding values for `COC(=O)C1=C(C)NC(C)=C(C(=O)NCCCN2CCC(c3ccccc3)CC2)C1c1ccc([N+](=O)[O-])cc1` (single isomer, unassigned; (-)) [(−)-45, 1,4-Dihydro-3-methoxycarbonyl-2,6-dimethyl-4-(4-nitrophenyl)-5-{N-[3-(4-phenylpiperidin-1-yl)propyl]}carboxamidopyridine hydrochloride hemihydrate] are 0.182 nM, 229 nM and 13.8 nM.
The corresponding values for `COC(=O)C1=C(C)NC(C)=C(C(=O)NCCCCN2CCC(c3ccccc3)CC2)C1c1ccc([N+](=O)[O-])cc1` (stereo not drawn) [Example 3, 1,4-Dihydro-3-methoxycarbonyl-2,6-dimethyl-4-(4-nitrophenyl)-5-{N-[4-(4-phenylpiperidin-1-yl)butyl]}carbozamidopyridine hydrochloride hydrate] are 5.89 nM, 22.4 nM and 51.3 nM.
The corresponding values for `COC(=O)C1=C(C)NC(C)=C(C(=O)NCCCN2CCC(c3ccccc3)CC2)C1c1ccc(Cl)c([N+](=O)[O-])c1` (stereo not drawn) [Example 17, 4-(4-Chloro-3-nitrophenyl)-1,4-dihydro-3-methoxycarbonyl-2,6-dimethyl-5-(N-(3-(4-phenylpiperidin-1-yl)propyl)carboxamido)pyridine] are 0.537 nM, 141 nM and 26.9 nM.
As for `COC(=O)C1=C(C)NC(C)=C(C(=O)NCCCN2CCC(c3ccccc3)CC2)C1c1cccc([N+](=O)[O-])c1` (stereo not drawn) [Example 30, 1,4-Dihydro-3-methoxycarbonyl-2,6-dimethyl-4-(3-nitrophenyl)-5-(N-(3-(4-phenylpiperidin-1-yl)propyl)carboxamido)pyridine], the Ki in assay [1] (setting [4]) was 3.02 nM; in assay [2] (setting [5]) it was 234 nM; in assay [3] (setting [6]), 49 nM.
Taken in the same sequence, the figures for `COC(=O)C1=C(C)NC(C)=C(C(=O)NCCCN2CCC(c3ccccc3)CC2)C1c1ccc(C)cc1` (stereo not drawn) [Example 31, 1,4-Dihydro-3-methoxycarbonyl-2,6-dimethyl-4-(4-methylphenyl)-5-(N-(3-(4-phenylpiperidin-1-yl)propyl)carboxamido)pyridine] were 1.17 nM, 138 nM and 52.5 nM.
In the case of `CNC(=O)C1=C(C)NC(C)=C(C(=O)NCCCN2CCC(c3ccccc3)(c3ccccc3)CC2)C1c1ccc([N+](=O)[O-])cc1` (stereo not drawn) [Example 38, 1,4-Dihydro-2,6-dimethyl-5-(N-methyl)carboxamido-4-(4-nitrophenyl)-3-{N-[3-(4,4-diphenylpiperidin-1-yl)propyl]}carboxamidopyridine], the “pKi alpha-1 1c” value in assay [1] (setting [4]) is reported as 8.50. The “pKi alpha-2 2b” value in assay [2] is given as 6.04. The “pKi alpha-2 2c” value in assay [3] amounted to 6.49.
Consider `CC1=C(C(=O)NCCCN2CCC(c3ccccc3)(c3ccccc3)CC2)C(c2ccc([N+](=O)[O-])cc2)C(C(=O)N(C)C)=C(C)N1` (stereo not drawn) [Example 39, 1,4-Dihydro-2,6-dimethyl-3-(N,N-dimethyl) carboxamido-4-(4-nitrophenyl)-5-{N-[3-(4,4-diphenylpiperidin-1-yl)propyl]}carboxamidopyridine], for which the “pKi alpha-1 1c” value in assay [1] (setting [4]) is recorded as 7.23. For the same molecule, in assay [2] (setting [5]), the “pKi alpha-2 2b” value is recorded as 5.74. Besides, in assay [3] (setting [6]), the “pKi alpha-2 2c” value is reported as 6.09.
For the molecule `CC(=O)C1=C(C)NC(C)=C(C(=O)NCCCN2CCC(c3ccccc3)(c3ccccc3)CC2)C1c1ccc([N+](=O)[O-])cc1` (stereo not drawn) [Example 47, 5-Acetyl-1,4-dihydro-2,6-dimethyl-4-(4-nitrophenyl)-3-{N-[3-(4,4-diphenylpiperidin-1-yl)propyl]}carboxamidopyridine], the “pKi alpha-1 1c” value in assay [1] (setting [4]) was found to be 8.93. In assay [2] (setting [5]), the “pKi alpha-2 2b” value is on record as 6.36. In addition, in assay [3] (setting [6]), the “pKi alpha-2 2c” value amounted to 6.43.
Turning to `COC(=O)C1=C(C)NC(C)=C(C(=O)OCCCN2CCC(c3ccccc3)CC2)C1c1ccc([N+](=O)[O-])cc1` (stereo not drawn) [Example 48, 1,4-Dihydro-5-methazycarbonyl-2,6-dimethyl-4-(4-nitrophenyl)-3-[3-(4-phenylpiperidin-1-yl)propoxy]}carbonylpyridine hydrochloride hydrate], the Ki in assay [1] (setting [4]) was 0.525 nM; in assay [2] (setting [5]) it was 813 nM; in assay [3] (setting [6]) it was 417 nM.
The corresponding values for `COC(=O)C1=C(C)NC(C)=C(C(=O)OCCCN2CCCCC2)C1c1ccc([N+](=O)[O-])cc1` (stereo not drawn) [Example 50, 1,4-Dihydro-5-methoxycarbonyl-2,6-dimethyl-4-(4-nitrophenyl)-3-[3-(piperidin-1-yl)propoxy]carbonylpyridine hydrochloride etherate] are 85.1 nM, 2750 nM and 661 nM.
